For orientation: IC50 means the concentration that inhibits the measured activity by half. Higher therefore signals a need for much substance.

The structures appear in SMILES notation.

T1 sequence (Q05397 422-680 limits assumed): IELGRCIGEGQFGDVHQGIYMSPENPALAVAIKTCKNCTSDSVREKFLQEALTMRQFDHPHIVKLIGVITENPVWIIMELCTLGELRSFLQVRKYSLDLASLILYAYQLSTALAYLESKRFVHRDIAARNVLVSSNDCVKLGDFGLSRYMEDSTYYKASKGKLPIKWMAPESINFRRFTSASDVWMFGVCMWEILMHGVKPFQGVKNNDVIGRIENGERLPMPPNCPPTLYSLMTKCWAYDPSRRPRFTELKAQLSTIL

The experiment concerns the target T1, FAK enzyme (6 His tagged kinase domain, GenBank NP—722560) (Homo sapiens, UniProt Q05397).
T1 construct: 6 His; made in house; host or cells: insect cell culture infected with baculovirus
Kind of experiment: In vitro enzyme assay (a): sandwich ELISA of FAK tyrosine kinase activity on polyGAT peptide, TMB colorimetric endpoint. The class given is biochemical. Conditions: in vitro Enzyme Assay test (a); ATP at Km; geometric mean of n > 1 measurements, values marked * tested once. As for the experimental part: (a) In Vitro Enzyme Assay
A sandwich ELISA assay with a 3,3′,5,5′-tetramethyl benzidine (TMB) colorimetric endpoint was used in order to determine the level of effect of selected compounds on inhibition of FAK protein tyrosine kinase enzyme activity. A synthetic tyrosine containing peptide is coated onto a plastic surface, the level of phosphorylation of these tyrosine residues by the kinase enzyme in the presence of inhibitors is measured using an antibody that binds specifically to phosphorylated tyrosine residues. The amount of antibody bound to substrate is proportional to the level of enzyme catalysis.
Assay Protocol to Identify Inhibitors of Focal Adhesion Kinase (FAK).
A PlateMate Plus™ 384 automated liquid handling unit with a 100 μl disposable tip head was used to make all the non compound reagent additions and a Tecan 384PW plate washer with 384 head was used for all wash steps. Initially Matrix 384 well polystyrene plates (Cat #:4311) were coated with 40 μl/well of a 0.0375 mg/ml solution of synthetic poly peptide (polyGAT, Sigma Cat #:P3899) dissolved in phosphate buffered saline (PBS). Plates were stored overnight at 4° C. Immediately before use the coating solution was aspirated out and each well washed with 2×100 μl of PBS+0.05% Tween 20. To remove surplus phosphate, the wells were then washed with 2×100 μl 50 mM HEPES buffer pH 7.4. Plates were blotted dry before the addition of compounds. Compounds were tested over a 12 point dose range, a Labcyte Echo 550 was used to dispense compounds in nl volumes and back fill with DMSO. The final concentration of compound in the assay was dependent on the starting concentration of compound. For a 10 mM stock compound the final assay dose ranged from 100 μM down to […]. Control wells containing 120 nl DMSO (Max) or 120 nl of 10 mM staurosporine (LC Laboratories, Boston, USA Cat #: S-9300) (Min) were included in each plate. 10 ul of 5% dimethyl sulfoxide v/v (DMSO, Fisher Scientific) was added to each well immediately prior to addition of 10 μl of a co-factor solution containing 80 mM MgCl2 (Sigma Cat #: M1028); 80 mM MnCl2 (Sigma Cat #: M1787); ATP at a concentration calculated to enable the initial reaction velocity to progress at half the maximum velocity (Km for ATP) (Sigma Cat #:A7699). A final addition of 20 μl of enzyme solution containing 100 mM HEPES pH7.4; 0.2 mM sodium vanadate (Sigma Cat #:S6508); 0.2 g/l bovine serum albumin (BSA, Sigma Cat #: A7888); 0.2 mM dithioreitol (Sigma Cat #: 5545); 0.1% Triton X100 (Sigma Cat #:X100); FAK enzyme (20 μl/ml) was made to each well to start the assay running FAK enzyme was generated from an insect culture infected with baculo virus containing the DNA sequence encoding the 6 His tagged kinase domain (GenBank NP_722560).
Plates were left at room temperature for 25 minutes before 10 μl of 500 mM ethylenediaminetetraacetic acid (EDTA) was added to stop the assay and the wells were immediately washed 3×100 μl with PBS+0.05% Tween 20. A 4G10 antibody (Millipore Cat #: 16-105; 16-184) with a directly conjugated horse radish peroxidase (HRP) was used to detect the phosphorylation of the substrate by the FAK. 40 μl of PBS+0.05% Tween 20 containing 0.5% BSA and 0.1 μl/ml antibody was added to each well and left for 1 hour at room temperature to allow the antibody to bind. After this period the wells were again washed with 3×100 μl of PBS+0.05% Tween 20. TMB (Sigma Cat #: T2885) was used as a substrate for the HRP. Phosphate-citrate buffer was made up using capsules provided by Sigma (Cat #: P4922) following the manufacturers guidelines. TMB was dissolved at a concentration of 1 mg/ml in DMSO and let down to a final concentration of 0.05 mg/ml with the phosphor-citrate buffer. 40 μl of the TMB solution was added to each assay well and left for 30 minutes for the blue colour to develop. […]
The molecule `CNC(=O)c1ccccc1Nc1cc(Nc2cnn(C3CCOCC3)c2)ncc1Cl` [Example 3.15, 2-[[5-chloro-2-[(1-tetrahydropyran-4-ylpyrazol-4-yl)amino]-4-pyridyl]amino]-N-methyl-benzamide] showed an IC50 of 670 nM.
Molecule `CNC(=O)c1ccccc1Nc1cc(Nc2cc(C)[nH]n2)ncc1Cl` [Example 3.16, 2-[[5-Chloro-2-[(5-methyl-1H-pyrazol-3-yl)amino]pyridin-4-yl]amino]-N-methylbenzamide] registered an IC50 of 93 nM.
Then `CNC(=O)c1ccccc1Nc1cc(Nc2cc(C3CC3)[nH]n2)ncc1Cl` [Example 3.17, 2-[[5-chloro-2-[(5-cyclopropyl-1H-pyrazol-3-yl)amino]-4-pyridyl]amino]-N-methyl-benzamide], with 93 nM.
The molecule `CNC(=O)c1ccccc1Nc1cc(Nc2cn(C)cn2)ncc1Cl` [Example 3.18, 2-[[5-chloro-2-[(1-methylimidazol-4-yl)amino]-4-pyridyl]amino]-N-methyl-benzamide] gave an IC50 of 275 nM.
The molecule `CNC(=O)c1ccccc1Nc1cc(Nc2cnn(C3CCNCC3)c2)ncc1Cl` [Example 3.19, 2-[[5-Chloro-2-[[1-(4-piperidyl)pyrazol-4-yl]amino]-4-pyridyl]amino]-N-methyl-benzamide] came in with a half-inhibitory concentration (IC50) of 686 nM.
With `CON(C)C(=O)c1ccccc1Nc1cc(Nc2cnn(C3CCN(C)CC3)c2)ncc1Cl` [Example 3.20, 2-[[5-Chloro-2-[[1-(1-methyl-4-piperidyl)pyrazol-4-yl]amino]-4-pyridyl]amino]-N-methoxy-N-methyl-benzamide], half-maximal inhibition (IC50) required 1230 nM.
Take `CON(C)C(=O)c1ccccc1Nc1cc(Nc2cn(C)nc2C)ncc1Cl` [Example 3.21, 2-[[5-chloro-2-[(1,3-dimethylpyrazol-4-yl)amino]-4-pyridyl]amino]-N-methoxy-N-methyl-benzamide]: the IC50 was 324 nM.
Regarding `Cc1nn(C)cc1Nc1cc(Nc2cccc3c2C(=O)N(C)CCO3)c(Cl)cn1` [Example 3.22, 6-[[5-Chloro-2-[(1,3-dimethylpyrazol-4-yl)amino]-4-pyridyl]amino]-4-methyl-2,3-dihydro-1,4-benzoxazepin-5-one], the concentration for half-maximal inhibition (IC50) turned out to be 25 nM.
On to `CN1CCc2cccc(Nc3cc(Nc4cnn(CC(=O)N5CCCC5)c4)ncc3Cl)c2C1=O` [Example 3.23, 8-[[5-Chloro-2-[[1-(2-oxo-2-pyrrolidin-1-yl-ethyl)pyrazol-4-yl]amino]-4-pyridyl]amino]-2-methyl-3,4-dihydroisoquinolin-1-one], for which the IC50 came out at 20 nM.
On to `COCCNC(=O)Cn1cc(Nc2cc(Nc3cccc4c3C(=O)N(C)CC4)c(Cl)cn2)cn1` [Example 3.24, 2-[4-[[5-chloro-4-[(2-methyl-1-oxo-3,4-dihydroisoquinolin-8-yl)amino]-2-pyridyl]amino]pyrazol-1-yl]-N-(2-methoxyethyl)acetamide], for which the IC50 turned out to be 18 nM.
The molecule `COCCN(C)C(=O)Cn1cc(Nc2cc(Nc3cccc4c3C(=O)N(C)CC4)c(Cl)cn2)cn1` [Example 3.25, 2-[4-[[5-chloro-4-[(2-methyl-1-oxo-3,4-dihydroisoquinolin-8-yl)amino]-2-pyridyl]amino]pyrazol-1-yl]-N-(2-methoxyethyl)-N-methyl-acetamide] had an IC50 of 27 nM.
In turn, `CN(C)CCNC(=O)Cn1cc(Nc2cc(Nc3cccc4c3C(=O)N(C)CC4)c(Cl)cn2)cn1` [Example 3.26, 2-[4-[[5-chloro-4-[(2-methyl-1-oxo-3,4-dihydroisoquinolin-8-yl)amino]-2-pyridyl]amino]pyrazol-1-yl]-N-(2-dimethylaminoethyl)acetamide] returned an IC50 of 38 nM.
The figure for `CN1CCc2cccc(Nc3cc(Nc4cnn(CC(=O)N5CCOCC5)c4)ncc3Cl)c2C1=O` [Example 3.27, 8-[[5-chloro-2-[[1-(2-morpholino-2-oxo-ethyl)pyrazol-4-yl]amino]-4-pyridyl]amino]-2-methyl-3,4-dihydroisoquinolin-1-one] is 11 nM; for `CN1CCc2cccc(Nc3cc(Nc4cnn(C)c4)ncc3Cl)c2C1=O` [Example 3.28, 8-[[5-Chloro-2-[(1-methylpyrazol-4-yl)amino]-4-pyridyl]amino]-2-methyl-3,4-dihydroisoquinolin-1-one] it is 41 nM.
Regarding `CN1CCC(n2cc(Nc3cc(Nc4cccc5c4C(=O)N(C)CC5)c(Cl)cn3)cn2)CC1` [Example 3.29, 8-[[5-chloro-2-[[1-(1-methyl-4-piperidyl)pyrazol-4-yl]amino]-4-pyridyl]amino]-2-methyl-3,4-dihydroisoquinolin-1-one], the IC50 worked out at 118 nM.
`Cc1cc(Nc2cc(Nc3cccc4c3C(=O)N(C)CC4)c(Cl)cn2)nn1C` [Example 3.30, 8-[[5-chloro-2-[(1,5-dimethylpyrazol-3-yl)amino]-4-pyridyl]amino]-2-methyl-3,4-dihydroisoquinolin-1-one]: half-maximal inhibition (IC50) required 59 nM.
Molecule `CC(=O)N1CCC(n2cc(Nc3cc(Nc4cccc5c4C(=O)N(C)CC5)c(Cl)cn3)cn2)CC1` [Example 3.31, 8-[[2-[[1-(1-acetyl-4-piperidyl)pyrazol-4-yl]amino]-5-chloro-4-pyridyl]amino]-2-methyl-3,4-dihydroisoquinolin-1-one] displayed an IC50 of 171 nM.
`Cc1nn(C)cc1Nc1cc(Nc2cccc3c2C(=O)N(C)CC3)c(Cl)cn1` [Example 3.32, 8-[[5-chloro-2-[(1,3-dimethylpyrazol-4-yl)amino]-4-pyridyl]amino]-2-methyl-3,4-dihydroisoquinolin-1-one]: 9 nM corresponded to half-maximal inhibition (IC50).
In turn, `CN1CCc2cccc(Nc3cc(Nc4cnn(C5CCNCC5)c4)ncc3Cl)c2C1=O` [Example 3.33, 8-[[5-Chloro-2-[[1-(4-piperidyl)pyrazol-4-yl]amino]-4-pyridyl]amino]-2-methyl-3,4-dihydroisoquinolin-1-one] gave a half-maximal inhibitory concentration (IC50) of 191 nM.
Take `CN1CCc2cccc(Nc3cc(Nc4cnn(C5CCCNC5)c4)ncc3Cl)c2C1=O` (stereo not drawn) [Example 3.34, 8-[[5-chloro-2-[[1-(3-piperidyl)pyrazol-4-yl]amino]-4-pyridyl]amino]-2-methyl-3,4-dihydroisoquinolin-1-one]: the IC50 was 160 nM.
Consider `Cc1nn(C)cc1Nc1cc(Nc2cccc3c2C(=O)N(C)C3)c(Cl)cn1` [Example 3.35, 7-[[5-Chloro-2-[(1,3-dimethylpyrazol-4-yl)amino]-4-pyridyl]amino]-2-methyl-isoindolin-1-one], for which the IC50 was found to be 36 nM.
`CNC(=O)c1cc(N2CCN(C)CC2)ccc1Nc1cc(Nc2cc(C)n(C)n2)ncc1Cl` [Example 3.36, 2-[[5-Chloro-2-[(1,5-dimethylpyrazol-3-yl)amino]-4-pyridyl]amino]-N-methyl-5-(4-methylpiperazin-1-yl)benzamide] had an IC50 of 249 nM.
Then `CNC(=O)c1cc(N2CCN(C)CC2)ccc1Nc1cc(Nc2cn(C)nc2C)ncc1Cl` [Example 3.37, 2-[[5-chloro-2-[(1,3-dimethylpyrazol-4-yl)amino]-4-pyridyl]amino]-N-methyl-5-(4-methylpiperazin-1-yl)benzamide], with 1050 nM.
`Cc1nn(C)cc1Nc1cc(Nc2ccc(N3CCN(C(C)C)CC3)c3c2C(=O)N(C)C3)c(Cl)cn1` [Example 3.38, 7-[[5-Chloro-2-[(1,3-dimethylpyrazol-4-yl)amino]-4-pyridyl]amino]-4-(4-isopropylpiperazin-1-yl)-2-methyl-isoindolin-1-one] came in with an IC50 of 36 nM.
